This is an account of results in patent publication US20150139949A1, “ANTI-VIRAL COMBINATION THERAPY” (priority 2011, published 2015).

For one data set, the target named is T1, hELOVL6 (Homo sapiens, UniProt Q9H5J4).
T1 sequence (Q9H5J4 1-265): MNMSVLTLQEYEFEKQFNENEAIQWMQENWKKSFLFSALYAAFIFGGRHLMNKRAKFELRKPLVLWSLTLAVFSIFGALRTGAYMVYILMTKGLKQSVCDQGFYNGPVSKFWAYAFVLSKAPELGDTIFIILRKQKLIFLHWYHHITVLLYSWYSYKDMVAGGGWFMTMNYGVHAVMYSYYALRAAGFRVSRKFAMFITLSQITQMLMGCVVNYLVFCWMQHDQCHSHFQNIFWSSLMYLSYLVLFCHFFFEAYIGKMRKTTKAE
Particulars: read-out: hELOVL6 IC50; cited from earlier work.

The target of a further data set is T2, hELOVL3 (Homo sapiens, UniProt Q9HB03).
T2 sequence (Q9HB03 1-270): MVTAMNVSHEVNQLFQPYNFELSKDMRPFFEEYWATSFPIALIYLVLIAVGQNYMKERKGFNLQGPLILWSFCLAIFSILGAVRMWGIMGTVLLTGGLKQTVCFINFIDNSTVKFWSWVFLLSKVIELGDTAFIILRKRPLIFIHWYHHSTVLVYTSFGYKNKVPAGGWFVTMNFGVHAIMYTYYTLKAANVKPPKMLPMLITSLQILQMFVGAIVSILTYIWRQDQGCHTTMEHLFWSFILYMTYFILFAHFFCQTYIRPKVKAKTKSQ
As to conditions: cited from earlier work.

Data set [1] relates to HCV. In words: HCV replication in cell cultures, ACC inhibitor combined with HCV protease inhibitor (Example 1). It is filed as cell-based. As for the experimental part:
HCV encoded proteolytic activity is required for infection and replication. The present example concerns the combined use of an ACC inhibitors (e.g., TOFA) and an HCV protease inihibitor (e.g., boceprevir) to antagonize viral replication. In each assay, various concentrations of TOFA are combined with various concentrations of boceprevir and cell cultures exposed to HCV are assayed for virus replication. In one series of tested combinations, a physiological concentration of boceprivir is held constant as the dose of TOFA is increased. Control cultures are treated with no drug, boceprivir alone or the various concentrations of TOFA alone. Samples are taken at 24, 48, 72 and 96 hours after initiation of drug treatment. The antiviral effect of boceprivir plus each concentration of TOFA is then compared to the activity of boceprivir alone or the various concentrations of TOFA alone. The relative toxicity of the different combinations is also assayed.

Data set [2] relates to HCV. Nature of the data set: HCV replication. In kind it is cell-based, hepatitis C virus.
The conditions of data set [3]: cited from earlier work.
The test system of another data set is HCMV. In words: HCMV replication / titer in infected fibroblasts. In kind it is cell-based.
The subject of the next data set is influenza A. In words: influenza A replication. It is filed as cell-based.
The test system of data set [4] is herpes simplex virus-1 (HSV-1). In words: HSV-1 replication. In kind it is cell-based. As to conditions: nanomolar concentrations.
Another data set concerns MDCK cells. In words: host cell toxicity in influenza A experiment. In kind it is cell-based. As to conditions: 0.5 mM and 1 mM, 24 hours.
Another data set has as its system adenovirus. In words: adenovirus replication / titer. It is filed as cell-based. Particulars: for decrease of adenovirus titer: MRC2 cells.
Data set [5] concerns triacylglycerol (TG) synthesis. As to conditions: cited from earlier work.
For data set [6], the system named is cholesterol ester (CE) synthesis. Particulars: cited from earlier work.

Like-named read-outs stand apart in the source and are kept apart here.

One may read the IC50 as the concentration at which inhibition is half-maximal. `CCCCS(=O)(=O)N1CCC[C@@H](C(=O)Nc2ccc(OC(C)C)cc2)C1`: the IC50 at hELOVL6 is 0.93 µM.

As to `CC(C)Oc1ccc(NC(=O)[C@@H]2C[C@@H]3CC[C@H]2N(S(=O)(=O)c2cn(C)cn2)C3)cc1`, the half-maximal inhibitory concentration (IC50) on hELOVL3 is 1.51 µM; on hELOVL6 it was 0.22 µM.

As to `CCCCCCCCCCCCCCOc1ccc(C(=O)O)o1` [TOFA, 5-(tetradecyloxy)-2-furoic acid], the “magnitude of the therapeutic effect” value in the data set with HCV [1] (given TOFA concentration, boceprivir also present) is listed as “increased”. Moreover, in the data set on HCV [1] (in the presence of a pharmacologically acceptable concentration of boceprivir), the “concentration of TOFA required to produce a 10-fold reduction in HCV replication” value is listed as “markedly reduced”. Also, the “inhibition of HCV replication” value with HCV [2] is recorded as “inhibited the replication”. In data set [3] (rat, in vivo, 100 mg/kg/day), the adverse effects entry is recorded as “no adverse effects are observed”. Further, the teratogenicity result in [3] (rat, in vivo, 150 mg/kg/day) is on record as “not teratogenic”. Moreover, in [3] (rats, oral), the “oral LD50” value is listed as “greater than 5,000 mg/kg”. Besides, in the data set with HCMV, the “inhibition of HCMV replication” value was “inhibited the replication”.

Turning to `CCC/C=C/C/C=C/C=C/C=N/NN=O` [triacsin C], in the data set on influenza A (nanomolar concentrations), the “inhibition of influenza A replication” value is given as “inhibit the replication”. The “inhibition of HCV replication” value in the data set with HCV [2] (nanomolar concentrations) is listed as “inhibit the replication”. Besides, the “inhibition of HSV-1 replication” value in data set [4] is listed as “inhibit the replication”. Moreover, the “inhibition of HCMV replication” value with HCMV (nanomolar concentrations) is on record as “inhibit the replication”.

For `CCCCS(=O)(=O)N1C[C@H]2CC[C@@H]1[C@H](C(=O)Nc1ccc(OC)cc1)C2`, on hELOVL6, the half-inhibitory concentration (IC50) was 1.71 µM.

For `NOCC(=O)O` [AOAA, aminooxyacetic acid], the host cell toxicity entry with MDCK cells was “no evidence of host cell toxicity”. In the data set with influenza A, the “decrease of influenza A replication” value was “at least 1000 fold” and the “inhibition of influenza A replication” value is “inhibited the replication”. Moreover, the “inhibition of adenovirus replication” value in the data set with adenovirus is listed as “inhibited the replication”. Also, the “decrease of adenovirus titer” value with adenovirus (0.5 mM) worked out at 20 fold. Further, the “decrease of adenovirus titer” value with adenovirus (1 mM) was 500 fold. The “inhibition of HCMV replication” value in the data set on HCMV was “inhibited the replication”. For the same compound, in the data set on HCMV (0.5 mM), the “decrease of HCMV replication” value is listed as 100 fold.

Turning to `CCC(C)[C@@H]1C(=O)/C(=C(/O)[C@@H]2[C@@H]3[C@H](C)C[C@H](C)C[C@@H]3C=C[C@@H]2[C@]2(C)O[C@H]2C)C(=O)N1C` (stereo partly drawn) [PF-1052], the “inhibition of TG synthesis” value in [5] is “inhibits both CE and TG synthesis in a dose dependent manner”. In addition, the “inhibition of HCMV replication” value in the data set on HCMV (10 μM) is given as “profoundly inhibits”. Also, the “inhibition of CE synthesis” value in [6] is “inhibits both CE and TG synthesis in a dose dependent manner”.

Consider `COC(=O)c1c2c(c3ccccc3c1O)OC(C)(C)C=C2` [rubimaillin], for which, in data set [6], the “inhibition of CE synthesis” value was “selectively inhibits CE synthesis”.

In the case of `N=C(N)NCc1cccc([131I])c1` [MIBG, meta-iodobenzylguanidine], the “reduction of HCMV titer” value in the data set on HCMV (50 μM, infected MRCS fibroblasts) was “about 70%”.

On to `O=C(Nc1ccc(C(F)(F)F)cc1)N1C2CCC1CC(S(=O)(=O)c1ccccn1)C2` (stereo not drawn) [endo-1w], for which the results for the IC50 on hELOVL3 and at hELOVL6 were 6.94 µM and 0.079 µM, respectively.
